Values after ≈ are worked out from the molar mass of the structure shown.
Key:
Format in all cases: functional
[1] = tested on: Streptococcus pneumoniae; test: Antibacterial activity against moxifloxacin resistance selected Streptococcus pneumoniae 3676 with GyrA E85G, GyrB S478I and ParC S79Y mutation after 10 antibiotic-free subcultures by macrodilution method
[2] = tested on: Streptococcus pneumoniae; test: Antibacterial activity against azithromycin resistance selected Streptococcus pneumoniae 3243 with L22 insertion 93SFRPRA94 mutation after 10 antibiotic-free subcultures by macrodilution method
[3] = tested on: Streptococcus pneumoniae; test: Antibacterial activity against clarithromycin resistance selected Streptococcus pneumoniae 3676 after 10 antibiotic-free subcultures by macrodilution method
[4] = tested on: Streptococcus pneumoniae; test: Antibacterial activity against clarithromycin resistance selected Streptococcus pneumoniae 3009 after 10 antibiotic-free subcultures by macrodilution method
[5] = tested on: Streptococcus pneumoniae; test: Antibacterial activity against moxifloxacin resistance selected Streptococcus pneumoniae 3009 with GyrA S81F and ParC D83N mutation after 10 antibiotic-free subcultures by macrodilution method
[6] = tested on: Streptococcus pneumoniae; test: Antibacterial activity against gatifloxacin resistance selected Streptococcus pneumoniae 3009 after 10 antibiotic-free subcultures by macrodilution method
[7] = tested on: Streptococcus pneumoniae; test: Antibacterial activity against moxifloxacin resistance selected Streptococcus pneumoniae 24 with GyrA S81Y, GyrB P413S and ParC S79F mutation after 10 antibiotic-free subcultures by macrodilution method
[8] = tested on: Streptococcus pneumoniae; test: Antibacterial activity against azithromycin resistance selected Streptococcus pneumoniae 2527 after 10 antibiotic-free subcultures by macrodilution method
[9] = tested on: Streptococcus pneumoniae; test: Antibacterial activity against moxifloxacin resistance selected Streptococcus pneumoniae 3665 with GyrA S81Y mutation after 10 antibiotic-free subcultures by macrodilution method
[10] = tested on: Streptococcus pneumoniae; test: Antibacterial activity against moxifloxacin resistance selected Streptococcus pneumoniae 3243 after 10 antibiotic-free subcultures by macrodilution method
[11] = tested on: Streptococcus pneumoniae; test: Antibacterial activity against Streptococcus pneumoniae assessed as period of suppression of bacterial growth
[12] = tested on: Streptococcus pneumoniae; test: Antibacterial activity against gatifloxacin resistance selected Streptococcus pneumoniae 37 with GyrA S81Y, GyrB E474K and ParC S79Y mutation after 10 antibiotic-free subcultures by macrodilution method
[13] = tested on: Streptococcus pneumoniae; test: Antibacterial activity against moxifloxacin resistance selected Streptococcus pneumoniae 19 with GyrA S81F mutation after 10 antibiotic-free subcultures by macrodilution method
[14] = tested on: Streptococcus pneumoniae; test: Antibacterial activity against azithromycin resistance selected Streptococcus pneumoniae 1077 with 23S rRNA A2058G mutation after 10 antibiotic-free subcultures by macrodilution method
[15] = tested on: Streptococcus pneumoniae; test: Antibacterial activity against levofloxacin resistance selected Streptococcus pneumoniae 3009 with GyrA S81Y and ParC S79Y mutation after 10 antibiotic-free subcultures by macrodilution method
[16] = tested on: Streptococcus pneumoniae; test: Antibacterial activity against moxifloxacin resistance selected Streptococcus pneumoniae 1076 with ParC S79Y mutation after 10 antibiotic-free subcultures by macrodilution method
[17] = tested on: Streptococcus pneumoniae; test: Antibacterial activity against gatifloxacin resistance selected Streptococcus pneumoniae 1076 with ParC S79Y mutation after 10 antibiotic-free subcultures by macrodilution method
[18] = tested on: Streptococcus pneumoniae; test: Antibacterial activity against clarithromycin resistance selected Streptococcus pneumoniae 3243 with 23S rRNA A2059T mutation after 10 antibiotic-free subcultures by macrodilution method
[19] = tested on: Streptococcus pneumoniae; test: Antibacterial activity against levofloxacin resistance selected Streptococcus pneumoniae 19 with GyrA S81Y and ParC D83Y mutation after 10 antibiotic-free subcultures by macrodilution method
[20] = tested on: Streptococcus pneumoniae; test: Antibacterial activity against clarithromycin resistance selected Streptococcus pneumoniae 3665 after 10 antibiotic-free subcultures by macrodilution method
[21] = tested on: Streptococcus pneumoniae; test: Antibacterial activity against Streptococcus pneumoniae 3665 by macrodilution method
[22] = tested on: Streptococcus pneumoniae; test: Antibacterial activity against clarithromycin resistance selected Streptococcus pneumoniae 3009 after 25 passages by macrodilution method
[23] = tested on: Streptococcus pneumoniae; test: Antibacterial activity against Streptococcus pneumoniae 3243 by macrodilution method
[24] = tested on: Streptococcus pneumoniae; test: Antibacterial activity against Streptococcus pneumoniae 3676 by macrodilution method
[25] = tested on: Streptococcus pneumoniae; test: Antibacterial activity against clarithromycin resistance selected Streptococcus pneumoniae 3243 with 23S rRNA A2059T mutation after 41 passages by macrodilution method
[26] = tested on: Streptococcus pneumoniae; test: Antibacterial activity against clarithromycin resistance selected Streptococcus pneumoniae 3676 after 44 passages by macrodilution method
[27] = tested on: Streptococcus pneumoniae; test: Antibacterial activity against clarithromycin resistance selected Streptococcus pneumoniae 3665 after 26 passages by macrodilution method
[28] = tested on: Streptococcus pneumoniae; test: Antibacterial activity against Streptococcus pneumoniae 3009 by macrodilution method

CO/N=C(\C(=O)N[C@@H]1C(=O)N2C(C(=O)O)=C(COC(N)=O)CS[C@H]12)c1ccco1 [CEFUROXIME]
MIC [1]: 0.125 µg/mL (≈ 0.295 µM)
MIC [2]: 0.5 µg/mL (≈ 1.18 µM)
MIC [3]: 0.125 µg/mL (≈ 0.295 µM)
MIC [4]: 0.03 µg/mL (≈ 0.0707 µM)
MIC [5]: 0.03 µg/mL (≈ 0.0707 µM)
MIC [6]: 0.03 µg/mL (≈ 0.0707 µM)
MIC [7]: 2 µg/mL (≈ 4.71 µM)
MIC [8]: 16 µg/mL (≈ 37.7 µM)
MIC [9]: 0.5 µg/mL (≈ 1.18 µM)
MIC [10]: 0.25 µg/mL (≈ 0.589 µM)
Post Antibiotic Effe [11]: 1.5 h
MIC [12]: 2 µg/mL (≈ 4.71 µM)
MIC [13]: 2 µg/mL (≈ 4.71 µM)
MIC [14]: 0.03 µg/mL (≈ 0.0707 µM)
MIC [15]: ≤ 0.016 µg/mL
MIC [16]: 0.03 µg/mL (≈ 0.0707 µM)
MIC [17]: 0.125 µg/mL (≈ 0.295 µM)
MIC [18]: 0.25 µg/mL (≈ 0.589 µM)
MIC [19]: 2 µg/mL (≈ 4.71 µM)
MIC [20]: 0.125 µg/mL (≈ 0.295 µM)

CC[C@H]1OC(=O)[C@H](C)[C@@H](O[C@H]2C[C@@](C)(OC)[C@@H](O)[C@H](C)O2)[C@H](C)[C@@H](O[C@@H]2O[C@H](C)C[C@H](N(C)C)[C@H]2O)[C@](C)(OC)C[C@@H](C)C(=O)[C@H](C)[C@@H](O)[C@]1(C)O [CLARITHROMYCIN]
MIC [21]: 2 µg/mL (≈ 2.67 µM)
MIC [1]: 4 µg/mL (≈ 5.35 µM)
MIC [2]: 0.5 µg/mL (≈ 0.668 µM)
MIC [3]: 16 µg/mL (≈ 21.4 µM)
MIC [4]: 64 µg/mL (≈ 85.6 µM)
MIC [5]: 4 µg/mL (≈ 5.35 µM)
MIC [6]: 2 µg/mL (≈ 2.67 µM)
MIC [7]: > 128 µg/mL
MIC [8]: 16 µg/mL (≈ 21.4 µM)
MIC [9]: 2 µg/mL (≈ 2.67 µM)
MIC [10]: 0.004 µg/mL (≈ 0.00535 µM)
MIC [22]: > 128 µg/mL
Post Antibiotic Effe [11]: 3.8 h
MIC [23]: 0.016 µg/mL (≈ 0.0214 µM)
MIC [12]: > 128 µg/mL
MIC [13]: > 128 µg/mL
MIC [14]: > 128 µg/mL
MIC [15]: 0.5 µg/mL (≈ 0.668 µM)
MIC [16]: > 128 µg/mL
MIC [17]: > 128 µg/mL
MIC [24]: 4 µg/mL (≈ 5.35 µM)
MIC [25]: 0.25 µg/mL (≈ 0.334 µM)
MIC [18]: 0.25 µg/mL (≈ 0.334 µM)
MIC [26]: 32 µg/mL (≈ 42.8 µM)
MIC [27]: 16 µg/mL (≈ 21.4 µM)
MIC [19]: > 128 µg/mL
MIC [20]: 8 µg/mL (≈ 10.7 µM)
MIC [28]: 16 µg/mL (≈ 21.4 µM)

C[C@@H](O)[C@H]1C(=O)N2C(C(=O)O)=C(SCCNC=N)C[C@H]12 [IMIPENEM ANHYDROUS]
MIC [1]: 0.03 µg/mL (≈ 0.1 µM)
MIC [2]: 0.03 µg/mL (≈ 0.1 µM)
MIC [3]: 0.016 µg/mL (≈ 0.0534 µM)
MIC [4]: ≤ 0.004 µg/mL
MIC [5]: 0.008 µg/mL (≈ 0.0267 µM)
MIC [6]: 0.008 µg/mL (≈ 0.0267 µM)
MIC [7]: 0.5 µg/mL (≈ 1.67 µM)
MIC [8]: 0.5 µg/mL (≈ 1.67 µM)
MIC [9]: 0.03 µg/mL (≈ 0.1 µM)
MIC [10]: 0.004 µg/mL (≈ 0.0134 µM)
Post Antibiotic Effe [11]: 1.7 h
MIC [12]: 0.5 µg/mL (≈ 1.67 µM)
MIC [13]: 0.5 µg/mL (≈ 1.67 µM)
MIC [14]: 0.008 µg/mL (≈ 0.0267 µM)
MIC [15]: ≤ 0.004 µg/mL
MIC [16]: 0.008 µg/mL (≈ 0.0267 µM)
MIC [17]: 0.008 µg/mL (≈ 0.0267 µM)
MIC [18]: 0.03 µg/mL (≈ 0.1 µM)
MIC [19]: 0.5 µg/mL (≈ 1.67 µM)
MIC [20]: 0.03 µg/mL (≈ 0.1 µM)

C[C@H]1COc2c(N3CCN(C)CC3)c(F)cc3c(=O)c(C(=O)O)cn1c23.C[C@H]1COc2c(N3CCN(C)CC3)c(F)cc3c(=O)c(C(=O)O)cn1c23.O [LEVOFLOXACIN]
Post Antibiotic Effe [11]: 1.3 h
MIC [12]: 64 µg/mL

Reference: ChEMBL document CHEMBL1142186, “Multistep resistance selection and postantibiotic-effect studies of the antipneumococcal activity of LBM415 compared to other agents” (2007)
